EC50 data for 44 compounds are collected here from patent US10034886B2, “GLP-1 receptor modulators” (Celgene International II SÀRL, priority 2014, dated 2018).

A value given as a limit tells only on which side of the number the result lay.

T1 sequence (P43220 24-463): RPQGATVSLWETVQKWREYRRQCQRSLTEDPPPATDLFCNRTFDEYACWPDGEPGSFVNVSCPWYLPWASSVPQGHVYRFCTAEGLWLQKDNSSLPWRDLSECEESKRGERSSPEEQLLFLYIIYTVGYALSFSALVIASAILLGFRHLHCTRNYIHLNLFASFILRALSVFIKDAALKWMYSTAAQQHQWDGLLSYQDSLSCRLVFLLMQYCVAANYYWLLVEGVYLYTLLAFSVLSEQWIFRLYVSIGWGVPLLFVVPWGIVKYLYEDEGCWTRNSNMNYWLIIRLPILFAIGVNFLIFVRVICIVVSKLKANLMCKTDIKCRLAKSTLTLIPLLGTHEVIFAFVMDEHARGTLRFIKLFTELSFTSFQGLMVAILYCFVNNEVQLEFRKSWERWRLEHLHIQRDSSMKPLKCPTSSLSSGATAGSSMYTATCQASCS
T1 sequence (P01275 100-127 partner limits assumed): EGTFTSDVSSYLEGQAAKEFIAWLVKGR

The experiment concerns the target T1, GLP-1R (Homo sapiens, UniProt P43220).
T1 construct: host or cells: GLP-1R CRE-bla CHO-K1 cells
Nature of the experiment: EC20 GLP-1(9-36) PAM cAMP assay: dose response of compound in the presence of fixed concentration of GLP-1(9-36). It is filed as cell-based. Conditions: dose response of compound in presence of fixed concentration of GLP-1(9-36), GLP-1R CRE-bla CHO-K1 cells, read-out: EC20 GLP-1(9-36) PAM EC50. In outline:
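Positive allosteric modulation read as cAMP accumulation: compound titrations (12 points) combined with an EC20 level of GLP-1(9-36) on CHO-K1 GLP-1R CRE-bla cells, IBMX present, 30 min, 37 °C, pH 7.4 buffer. Luminescence converted to cAMP via standards; non-linear fit gave EC50 and Emax.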
A word on the EC50: it is the concentration at which the effect is half-maximal. Consider `CC[C@H]1CC[C@H](c2ccc(-c3cnc(-c4ccc(C[C@H](NC(=O)c5ccc(C(C)(C)C)s5)C(=O)N[C@H](C)C(=O)O)cc4)nc3)cc2)CC1` [Compound 1056, ((S)-2-(5-(tert-butyl)thiophene-2-carboxamido)-3-(4-(5-(4-((1r,4r)-4-ethylcyclohexyl)phenyl)pyrimidin-2-yl)phenyl)propanoyl)-D-alanine], for which the EC50 was under 800 nM. As for `CC[C@H]1CC[C@H](c2ccc(-c3cnc(-c4ccc(C[C@H](NC(=O)c5ccc(C(C)(C)C)s5)C(=O)N5CC(C(=O)O)C5)cc4)nc3)cc2)CC1` [Compound 1057, 1-((S)-2-(5-(tert-butyl)thiophene-2-carboxamido)-3-(4-(5-(4-((1r,4r)-4-ethylcyclohexyl)phenyl)pyrimidin-2-yl)phenyl)propanoyl)azetidine-3-carboxylic acid], the EC50 is under 800 nM. Regarding `CC[C@H]1CC[C@H](c2ccc(-c3cnc(-c4ccc(C[C@H](NC(=O)c5ccc(C(C)(C)C)s5)C(=O)O)cc4)nc3)cc2)CC1` [Compound 1058, (S)-2-(5-(tert-butyl)thiophene-2-carboxamido)-3-(4-(5-(4-((1r,4r)-4-ethylcyclohexyl)phenyl)pyrimidin-2-yl)phenyl)propanoic acid], the EC50 was under 800 nM. For the compound `CC[C@H]1CC[C@H](c2ccc(N3CCN(c4ccc(C[C@H](NC(=O)c5ccc(C(C)(C)C)s5)C(=O)O)cc4)CC3)cc2)CC1` [Compound 1059, (S)-2-(5-(tert-butyl)thiophene-2-carboxamido)-3-(4-(4-(4-((1r,4r)-4-ethylcyclohexyl)phenyl)piperazin-1-yl)phenyl)propanoic acid], the EC50 lay in the range of 5000 to 10000 nM.

`CC[C@H]1CC[C@H](c2ccc(N3CCN(c4ccc(C[C@H](NC(=O)c5ccc(C(C)(C)C)s5)C(=O)N5CC(C(=O)O)C5)cc4)CC3)cc2)CC1` [Compound 1060]: the concentration giving a half-maximal response (EC50) lay within 2500 to 5000 nM. With `CCCc1ccc(-c2ccc(-c3cnc(-c4ccc(C[C@H](NC(=O)c5ccc(C(C)(C)C)s5)C(=O)O)cc4)nc3)c(F)c2)cc1` [Compound 1061], the EC50 lay within 2500 to 5000 nM. For `CCCCCCCOc1ccc(-c2cnc(-c3ccc(C[C@H](NC(=O)c4ccc(C(C)(C)C)s4)C(=O)O)cc3)nc2)nc1` [Compound 1062, (S)-2-(5-(tert-butyl)thiophene-2-carboxamido)-3-(4-(5-(5-(heptyloxy)pyridin-2-yl)pyrimidin-2-yl)phenyl)propanoic acid], the EC50 lay within 800 to 2500 nM. In the case of `CCCCCCCOc1ccc(-c2cnc(-c3ccc(C[C@H](NC(=O)c4ccc(C(C)(C)C)s4)C(=O)N[C@H](C)C(=O)O)cc3)nc2)nc1` [Compound 1063], the EC50 is under 800 nM. Take `CCCCCCCOc1ccc(-c2cnc(-c3ccc(C[C@H](NC(=O)c4ccc(C(C)(C)C)s4)C(=O)N4CCC[C@H]4C(=O)O)cc3)nc2)nc1` [Compound 1064]: the EC50 fell in the range of 800 to 2500 nM. With `CCCCCCCOc1ccc(-c2cnc(-c3ccc(C[C@H](NC(=O)c4ccc(C(C)(C)C)s4)C(=O)N4CC[C@H](C(=O)O)C4)cc3)nc2)nc1` [Compound 1065], the EC50 is under 800 nM. For `CCCCCCCOc1ccc(-c2cnc(-c3ccc(C[C@H](NC(=O)c4ccc(C(C)(C)C)s4)C(=O)N4CC(C(=O)O)C4)cc3)nc2)nc1` [Compound 1066], the EC50 was 800 to 2500 nM. As to `CC[C@H]1CC[C@H](c2ccc(-c3cnc(-c4ccc(C[C@H](NC(=O)c5ccc(C(C)(C)C)s5)C(=O)N[C@@H](C)C(=O)O)cc4)nc3)cc2)CC1` [Compound 1067], the EC50 is 800 to 2500 nM.

With `CCCCCCCOc1ccc(-c2cnc(-c3ccc(C[C@H](NC(=O)c4cnn(C(C)(C)C)c4)C(=O)N4CCC[C@H]4C(=O)O)cc3)nc2)cc1` [Compound 1068], the EC50 lay in the range of 800 to 2500 nM. Turning to `CCCCCCCOc1ccc(-c2cnc(-c3ccc(C[C@H](NC(=O)c4ccc(CCC)s4)C(=O)N4CCC[C@H]4C(=O)O)cc3)nc2)cc1` [Compound 1069], the EC50 fell in the range of 800 to 2500 nM.

For `CCCCCCCOc1ccc(-c2cnc(-c3ccc(C[C@H](NC(=O)Cc4ccc(OCCCC)cc4)C(=O)N4CCC[C@H]4C(=O)O)cc3)nc2)cc1` [Compound 1070], the EC50 is 800 to 2500 nM. Regarding `CCCCCCCOc1ccc(-c2cnc(-c3ccc(C[C@H](NC(=O)c4ccc(OCCC)cc4)C(=O)N4CCC[C@H]4C(=O)O)cc3)nc2)cc1` [Compound 1071], the 50% effective concentration (EC50) lay within 2500 to 5000 nM. With `CCCCCCCOc1ccc(-c2cnc(-c3ccc(C[C@H](NC(=O)c4ccc(CC)s4)C(=O)N4CCC[C@H]4C(=O)O)cc3)nc2)cc1` [Compound 1072], the EC50 lay within 800 to 2500 nM. Consider `CCCCCCCOc1ccc(-c2cnc(-c3ccc(C[C@H](NC(=O)c4ccc(CCC)cc4)C(=O)N4CCC[C@H]4C(=O)O)cc3)nc2)cc1` [Compound 1073], for which the EC50 fell in the range of 800 to 2500 nM. The same measure for `CCCCCCCOc1ccc(-c2cnc(-c3ccc(C[C@H](NC(=O)c4ccc(C(C)C)cc4)C(=O)N4CCC[C@H]4C(=O)O)cc3)nc2)cc1` [Compound 1074]: 800 to 2500 nM; for `CCCCCCCOc1ccc(-c2cnc(-c3ccc(C[C@H](NC(=O)c4ccc(CCCC)cc4)C(=O)N4CCC[C@H]4C(=O)O)cc3)nc2)cc1` [Compound 1075]: 800 to 2500 nM; for `CCCCCCCOc1ccc(-c2cnc(-c3ccc(C[C@H](NC(=O)c4ccc(CC(C)C)cc4)C(=O)N4CCC[C@H]4C(=O)O)cc3)nc2)cc1` [Compound 1076]: 2500 to 5000 nM. For `CCCCCCCOc1ccc(-c2cnc(-c3ccc(C[C@H](NC(=O)c4ccc(C(C)(C)C)nc4)C(=O)N4CCC[C@H]4C(=O)O)cc3)nc2)cc1` [Compound 1077], the EC50 was 800 to 2500 nM. As for `CCCCCCCOc1ccc(-c2cnc(-c3ccc(C[C@H](NC(=O)c4cnc(C(C)(C)C)nc4)C(=O)N4CCC[C@H]4C(=O)O)cc3)nc2)cc1` [Compound 1078], the half-maximal effective concentration (EC50) lay in the range of 2500 to 5000 nM.

Take `CCCCCCCOc1ccc(-c2cnc(-c3ccc(C[C@H](NC(=O)c4cnn(C(C)(C)C)c4C)C(=O)N4CCC[C@H]4C(=O)O)cc3)nc2)cc1` [Compound 1079]: the concentration for a half-maximal effect (EC50) is 2500 to 5000 nM.

In the case of `CCCCCCCOc1ccc(-c2cnc(-c3ccc(C[C@H](NC(=O)c4ccc(CC(C)C)s4)C(=O)N4CCC[C@H]4C(=O)O)cc3)nc2)cc1` [Compound 1080], the EC50 fell in the range of 800 to 2500 nM. As for `CCCCCCCOc1ccc(-c2cnc(-c3ccc(C[C@H](NC(=O)c4ccc(C(C)(C)C)c(OC)c4)C(=O)N4CCC[C@H]4C(=O)O)cc3)nc2)cc1` [Compound 1081], the concentration for a half-maximal effect (EC50) fell in the range of 800 to 2500 nM.

Take `CCCCCCCOc1ccc(-c2cnc(-c3ccc(C[C@H](NC(=O)c4ccc(C(C)(C)CC)cc4)C(=O)N4CCC[C@H]4C(=O)O)cc3)nc2)cc1` [Compound 1082]: the half-maximal effective concentration (EC50) was 800 to 2500 nM. For the compound `CCCCCCCOc1ccc(-c2cnc(-c3ccc(C[C@H](NC(=O)c4ccc(C5(C)CC5)cc4)C(=O)N4CCC[C@H]4C(=O)O)cc3)nc2)cc1` [Compound 1083], the EC50 lay within 800 to 2500 nM. `CC(C)(C)c1ccc(C(=O)N[C@@H](Cc2ccc(-c3ncc(-c4ccc(C5CCCC5)cc4)cn3)cc2)C(=O)N2CC[C@H](C(=O)O)C2)s1` [Compound 1084]: the EC50 is under 800 nM. As for `Cc1ccc(/C=C/c2cnc(-c3ccc(C[C@H](NC(=O)c4ccc(C(C)(C)C)s4)C(=O)N4CC[C@H](C(=O)O)C4)cc3)nc2)cc1` [Compound 1085], the EC50 was in the range of 800 to 2500 nM. Next, `CCc1ccc(/C=C/c2cnc(-c3ccc(C[C@H](NC(=O)c4ccc(C(C)(C)C)s4)C(=O)N4CC[C@H](C(=O)O)C4)cc3)nc2)cc1` [Compound 1086]: 800 to 2500 nM; `Cc1cc(-c2cnc(-c3ccc(C[C@H](NC(=O)c4ccc(C(C)(C)C)s4)C(=O)N4CC[C@H](C(=O)O)C4)cc3)nc2)ccc1OC(C)C` [Compound 1087]: under 800 nM.

Turning to `CC1(C)CCC(c2ccc(-c3cnc(-c4ccc(C[C@H](NC(=O)c5ccc(C(C)(C)C)s5)C(=O)N5CC(C(=O)O)C5)cc4)nc3)cc2)CC1` [Compound 1088], the half-maximal effective concentration (EC50) is under 800 nM. Turning to `CC(C)(C)c1ccc(C(=O)N[C@@H](Cc2ccc(-c3ncc(-c4ccc(C5CCCC5)cc4)cn3)cc2)C(=O)N2CC(C(=O)O)C2)s1` [Compound 1089], the EC50 was in the range of 800 to 2500 nM. Consider `CC(C)(C)c1ccc(C(=O)N[C@@H](Cc2ccc(-c3ncc(-c4ccc(-c5ccccc5)cc4)cn3)cc2)C(=O)N2CC(C(=O)O)C2)s1` [Compound 1090], for which the EC50 was under 800 nM. The same measure for `Cc1ccc(/C=C/c2cnc(-c3ccc(C[C@H](NC(=O)c4ccc(C(C)(C)C)s4)C(=O)N4CC(C(=O)O)C4)cc3)nc2)cc1` [Compound 1091]: 800 to 2500 nM; for `CCc1ccc(/C=C/c2cnc(-c3ccc(C[C@H](NC(=O)c4ccc(C(C)(C)C)s4)C(=O)N4CC(C(=O)O)C4)cc3)nc2)cc1` [Compound 1092]: 800 to 2500 nM; for `Cc1cc(-c2cnc(-c3ccc(C[C@H](NC(=O)c4ccc(C(C)(C)C)s4)C(=O)N4CC(C(=O)O)C4)cc3)nc2)ccc1OC(C)C` [Compound 1093]: under 800 nM. For the compound `CCCCCCCOc1ccc(-c2cnc(-c3ccc(C[C@H](NC(=O)c4ccn(C(C)(C)C)c4)C(=O)N4CC[C@H](C(=O)O)C4)cc3)nc2)cc1` [Compound 1094], the half-maximal effective concentration (EC50) was under 800 nM. The same measure for `CCCCCCCOc1ccc(-c2cnc(-c3ccc(C[C@H](NC(=O)Cc4ccc(OCCCC)cc4)C(=O)N4CC[C@H](C(=O)O)C4)cc3)nc2)cc1` [Compound 1095]: 2500 to 5000 nM; for `CCCCCCCOc1ccc(-c2cnc(-c3ccc(C[C@H](NC(=O)c4ccc(O)c(F)c4)C(=O)N4CC[C@H](C(=O)O)C4)cc3)nc2)cc1` [Compound 1096]: 800 to 2500 nM; for `CCCCCCCOc1ccc(-c2cnc(-c3ccc(C[C@H](NC(=O)c4ccc(OCCC)cc4)C(=O)N4CC[C@H](C(=O)O)C4)cc3)nc2)cc1` [Compound 1097]: 800 to 2500 nM.

For the compound `CCCCCCCOc1ccc(-c2cnc(-c3ccc(C[C@H](NC(=O)c4ccc(CC)cn4)C(=O)N4CC[C@H](C(=O)O)C4)cc3)nc2)cc1` [Compound 1098], the half-maximal effective concentration (EC50) was in the range of 2500 to 5000 nM. On to `CCCCCCCOc1ccc(-c2cnc(-c3ccc(C[C@H](NC(=O)c4cnn(C(C)(C)C)c4)C(=O)N4CC(C(=O)O)C4)cc3)nc2)cc1` [Compound 1099], for which the EC50 was 800 to 2500 nM.
